Source: article PMC7782687, “Insights into SusCD-mediated glycan import by a prominent gut symbiont” (Nature Communications, 2021)
Where “and” joins values, the source holds several entries; their conditions need not be identical. Equal entries are not always repeated.

Assays:
B. theta Δ1760 strain = experiment: Growth of Δ1760 (surface endo-levanase deletion) strain on levans from different sources; type: cell-based, Bacteroides thetaiotaomicron; conditions: minimal media, anaerobic, 37 °C, replicates 1-3, single wells
Description: Growth curves were performed in an Epoch microplate spectrometer (Biotek Instruments Ltd) with 96-well Costar culture plate (Sigma-Aldrich) inside an anaerobic cabinet at 37 °C (Don Whitley Scientific, A35 workstation). Media were inoculated 1:10 with bacterial cultures previously grown overnight in BHI. Final culture volumes of 200 µl were used, and each condition was performed in triplicate. Optical density at 600 nm was measured in each well at 30 min intervals.
In most cases, the levan used was from Erwinia herbicola (Sigma). For analysis of the growth of the Δ1760 strain, bacterial levans from Bacillus sp. (Montana Polysaccharides) and Zymomonas mobilis[64] (a kind gift from Prof. Dr. Yekta Göksunger, Ege University, Izmir, Turkey) were also used, as well as levan from Timothy grass (Megazyme) and in vitro synthesised levan. In vitro synthesised levan was made using Bacillus subtilis levansucrase incubated with 20% sucrose in PBS for 24 h at 37 °C. Proteinase K (100 µg/ml) was then added to remove the protein, before being precipitated out using 0.5% trichloroacetic acid final. The levan was then extensively dialysed against water and freeze dried.

[1] = target: T1, Bt1763 (SusC) TonB-dependent transporter of the Bacteroides thetaiotaomicron levan utilisation locus (Bacteroides thetaiotaomicron, UniProt Q8A6W3 26-1041); experiment: crystal structure; Bt1762-63 purified from B. theta outer membranes, in 0.4% C8E4; apo and with 2.5 mM β2,6 FOS; 0.15 M sodium formate, 0.1 M HEPES pH 7-7.5, 16-20% PEG 3350; conditions: both partners purified
T1 construct: Bt1763 (SusC), TonB-dependent transporter of the levan PUL, Bacteroides thetaiotaomicron VPI-5482; numbers count on: the mature protein; In closed states seen by cryo-EM the plug domain has no density; source: endogenous, B. thetaiotaomicron VPI-5482 (Bt1762-his strain) grown on MM fructose; outer membrane extracted with LDAO; purified with His-tagged Bt1762 (IMAC, SEC)
T1 sequence (looked up): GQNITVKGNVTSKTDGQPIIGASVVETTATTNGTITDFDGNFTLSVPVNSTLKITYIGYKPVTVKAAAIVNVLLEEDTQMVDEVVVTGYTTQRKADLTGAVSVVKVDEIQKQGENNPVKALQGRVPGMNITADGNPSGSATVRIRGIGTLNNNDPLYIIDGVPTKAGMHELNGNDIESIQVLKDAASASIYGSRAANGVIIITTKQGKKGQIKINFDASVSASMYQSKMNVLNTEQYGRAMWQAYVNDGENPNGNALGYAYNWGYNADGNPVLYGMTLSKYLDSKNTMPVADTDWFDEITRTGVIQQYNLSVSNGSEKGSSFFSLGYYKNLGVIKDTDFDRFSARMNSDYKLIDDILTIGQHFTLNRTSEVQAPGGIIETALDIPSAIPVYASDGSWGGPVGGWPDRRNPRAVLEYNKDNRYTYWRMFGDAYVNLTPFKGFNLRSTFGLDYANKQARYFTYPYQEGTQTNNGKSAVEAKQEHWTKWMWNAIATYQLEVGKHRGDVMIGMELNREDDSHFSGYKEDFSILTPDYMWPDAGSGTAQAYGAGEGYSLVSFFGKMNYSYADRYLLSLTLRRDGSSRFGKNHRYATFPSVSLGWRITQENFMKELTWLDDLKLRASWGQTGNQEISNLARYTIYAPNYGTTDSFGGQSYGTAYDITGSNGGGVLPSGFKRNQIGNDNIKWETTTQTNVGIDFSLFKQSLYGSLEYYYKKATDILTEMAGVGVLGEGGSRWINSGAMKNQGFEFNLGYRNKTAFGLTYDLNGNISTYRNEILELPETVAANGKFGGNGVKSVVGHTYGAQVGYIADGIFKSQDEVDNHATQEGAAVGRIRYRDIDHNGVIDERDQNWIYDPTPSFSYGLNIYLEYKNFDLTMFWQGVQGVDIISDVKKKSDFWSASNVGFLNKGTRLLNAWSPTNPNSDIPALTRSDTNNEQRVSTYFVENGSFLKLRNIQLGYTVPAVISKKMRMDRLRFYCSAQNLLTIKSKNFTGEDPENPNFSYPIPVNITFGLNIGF

[2] = target: the molecule itself; experiment: as above

## O=C(CO)C(O)C(O)C(O)CO (centres unmarked) [Frc]
B. theta Δ1760 strain; time 00:00:00, carbon source 0.5 %
  Optical density at 600 nm: 0.303 and 0.324 and 0.321 and 0.418 and 0.289 and 0.311 and 0.334 and 0.296 and 0.325
B. theta Δ1760 strain; time 00:30:00, carbon source 0.5 %
  Optical density at 600 nm: 0.171 (2×) and 0.174 (2×) and 0.172 (2×) and 0.177 and 0.173 and 0.181
B. theta Δ1760 strain; time 01:00:00, carbon source 0.5 %
  Optical density at 600 nm: 0.178 (2×) and 0.179 (2×) and 0.177 (2×) and 0.18 (2×) and 0.182
B. theta Δ1760 strain; time 01:30:00, carbon source 0.5 %
  Optical density at 600 nm: 0.186 and 0.189 (2×) and 0.187 (2×) and 0.188 (2×) and 0.184 and 0.19
B. theta Δ1760 strain; time 02:00:00, carbon source 0.5 %
  Optical density at 600 nm: 0.194 and 0.197 and 0.196 (2×) and 0.199 (2×) and 0.191 and 0.202 and 0.198
B. theta Δ1760 strain; time 02:30:00, carbon source 0.5 %
  Optical density at 600 nm: 0.203 and 0.21 and 0.212 and 0.211 and 0.198 and 0.204 and 0.215 and 0.206 and 0.214
B. theta Δ1760 strain; time 03:00:00, carbon source 0.5 %
  Optical density at 600 nm: 0.211 and 0.217 and 0.232 and 0.225 and 0.205 and 0.212 and 0.229 and 0.214 and 0.226
B. theta Δ1760 strain; time 03:30:00, carbon source 0.5 %
  Optical density at 600 nm: 0.22 and 0.224 (2×) and 0.261 and 0.24 (2×) and 0.214 and 0.221 and 0.255
B. theta Δ1760 strain; time 04:00:00, carbon source 0.5 %
  Optical density at 600 nm: 0.228 and 0.23 (2×) and 0.304 and 0.261 (2×) and 0.22 and 0.234 and 0.284
B. theta Δ1760 strain; time 04:30:00, carbon source 0.5 %
  Optical density at 600 nm: 0.233 and 0.24 and 0.355 and 0.279 and 0.223 and 0.252 and 0.313 and 0.238 and 0.283
B. theta Δ1760 strain; time 05:00:00, carbon source 0.5 %
  Optical density at 600 nm: 0.238 and 0.259 and 0.442 and 0.309 and 0.227 and 0.278 and 0.351 and 0.243 and 0.306
B. theta Δ1760 strain; time 05:30:00, carbon source 0.5 %
  Optical density at 600 nm: 0.249

B1: Bt1762 (SusD) of the Bacteroides thetaiotaomicron levan utilisation locus, with C-terminal His6 tag (natural protein, UniProt Q8A6W4 19-570, looked up)
chain: CDDFLDRQVPQGIVTGDQIASPEYVDNLVISAYAIWATGDDINSSFSLWNYDVRSDDCYKGGSGTEDGGVFNALEISKGINTTDWNINDIWKRLYQCITRANTALQSLDQMDEKTYPLKNQRIAEMRFLRGHAHFMLKQLFKKIVIVNDENMEPDAYNELSNTTYTNDEQWQKIADDFQFAYDNLPEVQIEKGRPAQAAAAAYLAKTYLYKAYRQDGADNALTGINEEDLKQVVKYTDPLIMAKGGYGLETDYSMNFLPQYENGAESVWAIQYSINDGTYNGNLNWGMGLTTPQILGCCDFHKPSQNLVNAFKTDSQGKPLFSTYDNENYEVATDNVDPRLFHTVGMPGFPYKYNEGYIIQKNDDWSRSKGLYGYYVSLKENVDPDCDCLKKGSYWASSLNHIVIRYADVLLMRAEALIQLNDGRITDAISLINEVRSRAAGSTMLIFNYKEDYGVNFKVTPYDLKAYAQDEAMKMLKWERRVEFGMESSRFFDLVRWGEAKDVINAYYVTEASRCSIYKNAGFTENKNEYLPVPFEQISASNGNYTQNFGW
modifications: lipid anchor (lipoprotein)
notes: numbers count on: the mature protein; His6 tag is chromosomal; also called SusD lid; WT (Bt1762-his strain); source: B. thetaiotaomicron VPI-5482 (Bt1762-his strain) grown on MM fructose; outer membrane extracted with LDAO; purified with Bt1763 (IMAC, SEC); not shown: His6, C-terminal, kept
[1]
  binding result: binds

B2: Bt1762-Bt1763 SusCD complex (complex, Bacteroides thetaiotaomicron)
chain 1: B1 chain
chain 2: T1 sequence (looked up)
modifications: lipid anchor (lipoprotein)
notes: Bt1762 (SusD), Bacteroides thetaiotaomicron VPI-5482; as m1; numbers count on: the mature protein; Bt1763 (SusC), Bacteroides thetaiotaomicron VPI-5482; as m2; One SusCD unit (one Bt1762, one Bt1763); two such units form the SusC2D2 dimer; also called Bt1762-63; BT1762-63; source: B. thetaiotaomicron VPI-5482 (Bt1762-his strain) grown on MM fructose; outer membrane extracted with LDAO; purified …
[2]
  stoichiometry N: 2
